Results from patent US10000476B2, “Pyridone derivative, pharmaceutical containing the same and methods of use thereof” (KAKEN PHARMACEUTICAL CO., LTD., priority 2011, dated 2018).

Key:
TACE = TACE (Homo sapiens (Human), UniProt P78536); assay: TACE inhibition test (in vitro); assay type: biochemical; conditions: fluorescent synthetic substrate, 37° C., 1.5 hours
Outline: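 Recombinant enzyme (cDNA from THP-1 cells, expressed in mammalian or insect cells) with quenched substrate Nma-Leu-Ala-Gln-Ala-Val-Arg-Ser-Ser-Lys(Dnp)-D-Arg-NH2. Incubated 1.5 h at 37 °C; fluorescence read at ex 355/em 460 nm; IC50 from inhibition rate.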

[1] = tested on: auricular oedema induced by TPA in BALB/c mice; assay: Inhibition test of auricular oedema induced by single application of TPA in mouse; assay type: in vivo; conditions: 1 w/v % solution applied topically to ear 1 hour before TPA, auricle thickness 6 hours after TPA, read-out: Auricular oedema inhibition rate (%)
Description: Inhibition Test of Auricular Oedema Induced by Single Application of TPA (12-O-tetradecanoylphorbol-13-acetate) in Mouse (In Vivo Efficacy Test Based on TNF-α-Related Cutaneous Inflammation)
Auricular oedema was induced by applying 54 μmol/L TPA-acetone solution on both the inner and outer sides of the left ear of BALB/c mice (application volume of 54 μmol/L TPA-acetone solution is 10 μL for each side of the left ear (i.e. 1.08 nmol TPA/auricle)). For a non-induced group, acetone was similarly applied instead of the 54 μmol/L TPA-acetone solution. The test substance was dissolved and prepared in a 1 w/v % solution of acetone containing 10 vol % DMSO (topical administration vehicle), then the test solution was applied onto both the inner and outer sides of the left ear of the mice (application volume of this test solution is 10 μL for each side of the left ear) 1 hour before the TPA application. For a control group, the topical administration vehicle was similarly applied instead of the test substance solution. For an etanercept group, 0.2 mL of a 5 mg/mL etanercept solution was intravenously administered (1 mg/mouse) the day before TPA application and 1.5 hours before TPA application. For a human IgG (hIgG) group (etanercept control group), 0.2 mL of a 5 mg/mL hIgG solution was intravenously administered (1 mg/mouse). Auricle thickness was measured under ether anesthesia the day before TPA application and 6 hours after TPA application for evaluation of the auricular oedema inhibition effect of the test substance based on the increase in auricle thickness as an index.
The auricular oedema inhibition rate (%) of the test substance was calculated based on the following formula using (A) the average value of the increase in auricular thickness of the group administered with the test substance, (B) the average value of the increase in auricular thickness of the non-induced group, and (C) the average value of the increase in auricular thickness of the control group. […]

Sequence of TACE (P78536 215-824): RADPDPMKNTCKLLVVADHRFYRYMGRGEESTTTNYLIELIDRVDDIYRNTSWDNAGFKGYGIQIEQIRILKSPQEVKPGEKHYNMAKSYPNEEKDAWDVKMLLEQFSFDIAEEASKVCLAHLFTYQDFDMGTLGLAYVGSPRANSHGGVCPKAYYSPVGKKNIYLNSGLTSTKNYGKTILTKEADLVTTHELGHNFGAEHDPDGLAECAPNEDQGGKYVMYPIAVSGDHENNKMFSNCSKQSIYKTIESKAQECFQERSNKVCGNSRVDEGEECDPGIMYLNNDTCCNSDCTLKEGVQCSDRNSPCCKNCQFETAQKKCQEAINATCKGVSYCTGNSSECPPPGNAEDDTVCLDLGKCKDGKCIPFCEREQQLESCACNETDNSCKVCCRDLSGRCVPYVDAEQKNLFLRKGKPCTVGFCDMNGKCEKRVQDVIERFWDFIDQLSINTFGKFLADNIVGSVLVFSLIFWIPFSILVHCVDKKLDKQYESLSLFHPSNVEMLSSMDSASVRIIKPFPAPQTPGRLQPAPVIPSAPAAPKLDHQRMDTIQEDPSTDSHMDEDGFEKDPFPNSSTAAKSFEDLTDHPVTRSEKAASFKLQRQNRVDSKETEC

| SMILES | IC50 (TACE) [µM] | inhibition in vivo at 10000 µg/mL [1] [%] |
| --- | --- | --- |
| Cc1cccn(CC2(c3ccc(OC4C=CCCC4)cc3)NC(=O)NC2=O)c1=O (stereo not shown) [Compound I-36, 5-[4-(cyclohex-2-en-1-yloxy)phenyl]-5-[(3-methyl-2-oxopyridin-1(2H)-yl)methyl]imidazolidine-2,4-dione] | < 0.1 | 58 |
| Cc1cccn(CC2(c3ccc(OC4CCCCC4)cc3)NC(=O)NC2=O)c1=O (stereo not shown) [Compound I-37, 5-[4-(cyclohexyloxy)phenyl]-5-[(3-methyl-2-oxopyridin-1(2H)-yl)methyl]imidazolidine-2,4-dione] | < 0.1 | 78 |
| Cc1cc(C2(Cn3cccc(C)c3=O)NC(=O)NC2=O)ccc1OC1C=CCCC1 (stereo not shown) [Compound I-38] | < 0.1 | 41 |
| Cc1cccn(CC2(c3ccc(Oc4cccc(F)c4)cc3)NC(=O)NC2=O)c1=O (stereo not shown) [Compound I-84] | < 0.1 | 53 |
| Cc1cccn(CC2(c3ccc(Oc4ccc(F)cc4)cc3)NC(=O)NC2=O)c1=O (stereo not shown) [Compound I-85] | < 0.1 | 78 |
| Cc1cccn(CC2(c3ccc(Sc4ccccc4)cc3)NC(=O)NC2=O)c1=O (stereo not shown) [Compound I-102] | < 0.1 | 50 |
| Cc1cc(C2(Cn3cccc(C)c3=O)NC(=O)NC2=O)cc(C)c1OC1CCCC1 (stereo not shown) [Compound I-129] | < 0.1 | 71 |
| Cc1cccn(CC2(c3ccc(Oc4ccc(Cl)cc4)cc3)NC(=O)NC2=O)c1=O (stereo not shown) [Compound I-130] |  | 44 |
| Cc1cccn(CC2(c3cc(F)ccc3F)NC(=O)NC2=O)c1=O (stereo not shown) [Compound I-154] | < 0.1 |  |
| O=C1NC(=O)C(Cn2ccccc2=O)(c2ccc(F)c(F)c2)N1 (stereo not shown) [Compound I-155] | < 0.1 |  |
| O=C1NC(=O)C(Cn2ccccc2=O)(c2ccc(Cc3ccccc3)cc2)N1 (stereo not shown) [Compound I-156] | 0.1 to 1 |  |
| O=C1NC(=O)C(Cn2ccccc2=O)(c2cc(F)c(F)c(F)c2)N1 (stereo not shown) [Compound I-157] | < 0.1 |  |
